Data set [1] has as its system inflammatory bowel disease. To be noted: cited from earlier work; for effectiveness in small bowel inflammation / side-effects (in words): IBD patients.
Data set [2] concerns TNBS-induced colonic inflammation. Put plainly: TNBS model, Compound N and comparison with 5-ASA. Type of data set: in vivo, rats. As to the method: Male Sprague-Dawley rats (200-250 g) were housed in standard cages (2 per cage) and fed rat chow and tap water ad libitum. After an overnight fast, rats were brought into the laboratory and randomized into treatment groups. Colitis was induced by intrarectal administration of 0.5 ml of TNBS solution (50 mg/kg in 50% ethanol) using a 1 ml syringe attached to a 5 cm polyethylene catheter. Control animals received saline (0.9%) or a 1 % methyl cellulose suspension at identical time points.
Three days after TNBS administration, the rats were sacrificed and the colons excised and opened longitudinally.
Compound N was subjected to a series of TNBS activity tests as just described.
Groups of rats (11 rats/group) were administered Compound N (10 mg/kg po), 5-ASA (10 mg/kg po), 5-ASA (300 mg/kg po), or the methylcellulose vehicle 1 hour prior to the TNBS enema. After 3 days the rats were sacrificed and the colonic damage morphologically evaluated.
Groups of rats, were administered increasing doses of Compound N (0-100 mg/kg-po) 1 hour prior to TNBS enema. In these experiments the endpoint was macroscopic assessment.

Data set [3] deals with TNBS induced model of colitis. As to conditions: only if multiple high doses administered intra-rectally; cited from earlier work.
Data set [4] can be described thus: PK parameter estimates, 30 mg/kg po (Table 1). Type of data set: in vivo, rats. To be noted: Compound N relative to Compound A, rats, 30 mg/kg po; 30 mg/kg. As to the method:
The bioavailability of compound N is depicted in FIG. 10 as well. |(NRTs Dosed 30 mg/kg po in 1% Methyl Cellulose, n = 3 rats/NRT)

In data set [5] the test system is senescence accelerated mice. As to conditions: cited from earlier work.
For a further data set, the system named is lethality induced by LPS. To be noted: various rodent models of septic shock; cited from earlier work.
For data set [6] the following is noted: following ischemia; cited from earlier work.
The subject of data set [7] is inducible nitric oxide synthetase (iNOS). As to conditions: cited from earlier work.
Data set [8] has as its system adjuvant induced arthritis. Description: Rat adjuvant induced arthritis model of chronic inflammation. The class given is in vivo. To be noted: Compound A 100 mg/kg po or dexamethasone 0.1 mg/kg, daily 7 days, vs adjuvant. How it is done:
Confirmation of the anti-inflammatory activity of Compound A was sought in another related biological test-the rat adjuvant induced arthritis model of chronic inflammation. This model was selected because almost all of the anti-IBD agents also show efficacy in standard arthritis models. In this model Compound A was tested at 100 mg/kg, po in a 1 % methyl cellulose suspension. On day 0 all animals received an injection of either Mycobacterium butyricum (100μL, 20 mg/mL in mineral oil) or mineral oil in the base of the tail. 14 days after this injection, rat paws were measured and all the rats were randomized into 3 treatment groups of 8. A control adjuvant group (group without further treatment), a group to be treated with dexamethasone (steroid reference) and a group to treated with Compound A. Rats received Compound A 100 mg/kg, po, or dexamethasone 0.1 mg/kg, op, daily until day 21 (7 days dosing). On day 21 rats were sacrificed. Paw measurements were taken after 5 and 7 days treatment.

Setting [9] is: 0-100 mg/kg po, 1 hour prior to TNBS.

Each structure is given as a SMILES string. Entries after “also recorded” stand apart in the source; their conditions may differ.

For `Nc1ccc(O)c(C(=O)O)c1` [Compound 5-ASA], in data set [1] (5-ASA therapy), the “time to full efficacy” value is recorded as 6-8 weeks. Besides, in [1], the “response in Crohn's disease” value is listed as “poor”, the “response in early ulcerative colitis” value was “fair to mild” and the “response in severe ulcerative colitis” value is “poor”. Besides, the “effect on TNBS-induced colonic inflammation, 5-ASA 10 mg/kg” value in data set [2] (10 mg/kg po, 1 hour before TNBS) is on record as “no effect”. Moreover, the “effect on TNBS-induced colonic inflammation, 5-ASA 300 mg/kg” value in [2] (300 mg/kg po, 1 hour before TNBS) is reported as “no effect”. The “protection, 5-ASA intra-rectal” value in [3] is recorded as 50%.

With `CC(C)(C)NC(=O)c1ccc(N)cc1` [Compound N, N-tert-butyl-4-aminobenzamide], in [2] (setting [9]), the “colonic morphological score, dose-response (in words)” value was “dose=dependent reduction in the colonic morphological score”; the significance of protection entry is “only significant (p <0.05) at the 10, 30 and 100 mg/kg doses”. The “efficacy, 10 mg/kg po, Compound N” value in data set [2] (10 mg/kg po single dose, 1 hour before TNBS) is recorded as “excellent efficacy”. Besides, in data set [2] (TNBS activity tests), the “activity relative to Compound A” value is given as “better activity than that of Compound A” and the protection is listed as 75%. In addition, the “clearance / systemic exposure / variability (in words)” value in data set [4] is “lower clearance; also recorded: overall greater systemic exposure; also recorded: relatively low variability in plasma concentration”.

On to `CC(C)(C)[N+]([O-])=Cc1ccccc1` [PBN, α-phenyl-t-butyl nitrone], for which the “increase of life span” value in data set [5] is given as “one third”. Further, the “protection against lethality induced by LPS” value in the data set on lethality induced by LPS was “consistent and well documented protection”. In [6], the “trapping of reactive oxygen species and/or secondary free radicals” value is reported as “trap reactive oxygen species and/or secondary free radicals”. Besides, in [7], the “block of iNOS” value is “block inducible nitric oxide synthetase”.

As for `C[C@@H]1C[C@H]2[C@@H]3CCC4=CC(=O)C=C[C@]4(C)[C@@]3(F)[C@@H](O)C[C@]2(C)[C@@]1(O)C(=O)CO` [dexamethasone, reference compound], the “inhibition of the inflammatory response” value in data set [8] is reported as “significant inhibition of the inflammatory response (p<0.005)”.

As for `O=C(O)c1cc(/N=N/c2ccc(O)c(C(=O)O)c2)ccc1O` [olsalazine], in [1], the “effectiveness in small bowel inflammation” value was “Neither sulfasalazine nor olsalazine are effective” and the “side-effects (in words)” value is reported as “side effects are reduced”.

With `Nc1ccc(S(=O)(=O)Nc2ccccn2)cc1` [sulfapyridine], the “side-effects (in words)” value in data set [1] is given as “significant side-effects such as reversible sperm abnormalities, dyspepsia or allergic reactions to the sulpha component”. Further, the “patients who cannot tolerate” value in data set [1] (sulfapyridine component of sulfasalazine) is recorded as “at least 20 % of patients”.

As to `O=C(O)c1cc(/N=N/c2ccc(S(=O)(=O)Nc3ccccn3)cc2)ccc1O` [sulfasalazine], in [1], the “response in Crohn's disease” value was “poor”, the “effectiveness in small bowel inflammation” value is given as “Neither sulfasalazine nor olsalazine are effective”, the “response in early ulcerative colitis” value is given as “fair to mild” and the “response in severe ulcerative colitis” value is given as “poor”.

The record behind these values is patent US6194465A, “Benzamide therapeutics for the treatment of inflammatory bowel disease” (priority 1999, dated 2001).
